Reference: PubChem BioAssay AID248 (DTP/NCI, 2004)
“And” between values parts separate entries of the source, which are not always exact repeats. Equal values may be shown once. Inconclusive results and toxic doses are left out.

System: L1210 leukemia ip in BDF1 mice, survival T/C
Experiment: NCI In Vivo Anticancer Drug Screen. Data for tumor model L1210 Leukemia (intraperitoneal) in B6D2F1 (BDF1) mice
Details: endpoint: mean survival time, higher = longer survival
How it was run: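 Tumor cells were implanted, animals were treated, and survival was followed. The result divides the treated measurement by the vehicle-control measurement.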

[1] = dose: 100.0 mg/kg/injection, schedule: Q01DX009 (ip), vehicle: Klucel (hydroxypropylcellulose) (HPC)
[2] = dose: 100.0 mg/kg/injection, schedule: Q04DX003 (ip), vehicle: Klucel (hydroxypropylcellulose) (HPC)
[3] = dose: 200.0 mg/kg/injection, schedule: Q01DX009 (ip), vehicle: Klucel (hydroxypropylcellulose) (HPC)
[4] = dose: 200.0 mg/kg/injection, schedule: Q04DX003 (ip), vehicle: Klucel (hydroxypropylcellulose) (HPC)
[5] = dose: 400.0 mg/kg/injection, schedule: Q01DX009 (ip), vehicle: Klucel (hydroxypropylcellulose) (HPC)
[6] = dose: 400.0 mg/kg/injection, schedule: Q04DX003 (ip), vehicle: Klucel (hydroxypropylcellulose) (HPC)
[7] = dose: 100.0 mg/kg/injection, schedule: Q01DX001 (ip), vehicle: saline
[8] = dose: 200.0 mg/kg/injection, schedule: Q01DX001 (ip), vehicle: saline
[9] = dose: 400.0 mg/kg/injection, schedule: Q01DX001 (ip), vehicle: saline
[10] = dose: 100.0 mg/kg/injection, schedule: Q04DX002 (ip), vehicle: Klucel (hydroxypropylcellulose) (HPC)
[11] = dose: 200.0 mg/kg/injection, schedule: Q04DX002 (ip), vehicle: Klucel (hydroxypropylcellulose) (HPC)
[12] = dose: 400.0 mg/kg/injection, schedule: Q04DX002 (ip), vehicle: Klucel (hydroxypropylcellulose) (HPC)
[13] = dose: 50.0 mg/kg/injection, schedule: Q01DX009 (ip), vehicle: saline
[14] = dose: 100.0 mg/kg/injection, schedule: Q04DX003 (ip), vehicle: saline
[15] = dose: 10.0 mg/kg/injection, schedule: Q01DX001 (ip), vehicle: saline
[16] = dose: 20.0 mg/kg/injection, schedule: Q01DX001 (ip), vehicle: saline
[17] = dose: 40.0 mg/kg/injection, schedule: Q01DX001 (ip), vehicle: saline
[18] = dose: 100.0 mg/kg/injection, schedule: Q01DX009 (ip), vehicle: saline

`Nc1ccc(S(=O)(=O)Nc2cccc3ccccc23)cc1` was tested, and the T/C [1] was 100 % of control, the T/C [2] was 90 % of control and the T/C [3] was 99 % of control. The T/C [4] was 92 % of control, the T/C [5] was 101 % of control and the T/C [6] was 95 % of control.

In the case of `CCOC(=O)C1=NN(c2ccccc2)C(=O)C1N=Nc1ccc(NS(=O)(=O)c2nccs2)cc1` (stereo not given), the T/C [7] is reported as 102 % of control, the T/C [8] is reported as 105 % of control and the T/C [9] is reported as 96 % of control.

In the case of `O=NN(CCCl)C(=O)Nc1ccc(Cn2ccc(=O)[nH]c2=O)cc1`, the T/C (dose: 18.0 mg/kg/injection, schedule: Q01DX001 (ip), vehicle: carboxymethylcellulose (CMC)) is reported as 164 % of control, the T/C (dose: 23.0 mg/kg/injection, schedule: Q01DX001 (ip), vehicle: carboxymethylcellulose (CMC)) is reported as 185 % of control and the T/C (dose: 26.0 mg/kg/injection, schedule: Q01DX001 (ip), vehicle: carboxymethylcellulose (CMC)) is reported as 152 % of control. For the same compound, the T/C (dose: 31.0 mg/kg/injection, schedule: Q01DX001 (ip), vehicle: carboxymethylcellulose (CMC)) was 189 % of control, the T/C (dose: 40.0 mg/kg/injection, schedule: Q01DX001 (ip), vehicle: carboxymethylcellulose (CMC)) was 178 % of control and the T/C (dose: 46.0 mg/kg/injection, schedule: Q01DX001 (ip), vehicle: carboxymethylcellulose (CMC)) was 179 % of control. For the same compound, the T/C (dose: 60.0 mg/kg/injection, schedule: Q01DX001 (ip), vehicle: carboxymethylcellulose (CMC)) was 200 % of control, the T/C (dose: 62.0 mg/kg/injection, schedule: Q01DX001 (ip), vehicle: carboxymethylcellulose (CMC)) was 167 % of control and the T/C (dose: 90.0 mg/kg/injection, schedule: Q01DX001 (ip), vehicle: carboxymethylcellulose (CMC)) was 207 % of control. For the same compound, the T/C (dose: 125.0 mg/kg/injection, schedule: Q01DX001 (ip), vehicle: carboxymethylcellulose (CMC)) was 107 % of control and the T/C (dose: 187.0 mg/kg/injection, schedule: Q01DX001 (ip), vehicle: carboxymethylcellulose (CMC)) was 93 % of control.

For `Cc1cc(C)c(S(=O)(=O)Nc2cc([N+](=O)[O-])ccc2C)c(C)c1`, the T/C [1] was 97 % of control, the T/C [3] was 92 % of control and the T/C [5] was 92 % of control.

`CCCCCC(=O)N1CC(C)OC(C)C1` (stereo not given) was tested, and the T/C [10] was 94 % of control, the T/C [11] was 97 % of control and the T/C [12] was 87 % of control.

For `CCCCCCOC(CN)C(Cl)(Cl)Cl` (stereo not given), the T/C (dose: 12.5 mg/kg/injection, schedule: Q04DX003 (ip), vehicle: saline with Tween-80) was 107 % of control, the T/C (dose: 25.0 mg/kg/injection, schedule: Q01DX009 (ip), vehicle: saline with Tween-80) was 116 % of control and the T/C (dose: 25.0 mg/kg/injection, schedule: Q04DX003 (ip), vehicle: saline with Tween-80) was 109 % of control. The T/C (dose: 50.0 mg/kg/injection, schedule: Q01DX009 (ip), vehicle: saline with Tween-80) was 97 % of control and the T/C (dose: 50.0 mg/kg/injection, schedule: Q04DX003 (ip), vehicle: saline with Tween-80) was 102 % of control.

For `CC(=O)c1ccc(N=C=O)cc1`, the T/C (dose: 400.0 mg/kg/injection, schedule: Q01DX001 (ip), vehicle: saline with Tween-80) was 95 % of control.

With `c1ccc2occc2c1` the T/C [7] was 103 % of control.

In the case of `CC1=NCCN1CCN=C(N)CCl`, the T/C (dose: 12.5 mg/kg/injection, schedule: Q04DX002 (ip), vehicle: saline) is reported as 107 % of control, the T/C (dose: 25.0 mg/kg/injection, schedule: Q01DX009 (ip), vehicle: saline) is reported as 111 % of control and the T/C (dose: 25.0 mg/kg/injection, schedule: Q04DX002 (ip), vehicle: saline) is reported as 91 % of control. The T/C [13] was 101 % of control and the T/C (dose: 50.0 mg/kg/injection, schedule: Q04DX002 (ip), vehicle: saline) was 91 % of control.

For `CCCCCc1cc[n+](CC(=O)c2ccccc2)cc1`, the T/C (dose: 25.0 mg/kg/injection, schedule: Q04DX003 (ip), vehicle: saline) was 100 % of control, the T/C [7] was 93 % of control and the T/C [14] was 87 % of control.

`O=C(Oc1ccccc1)c1ccc2ccccc2c1O` was tested, and the T/C [10] was 100 % of control, the T/C [11] was 91 % of control and the T/C [12] was 100 % of control.

`C[CH2][Sb]([Cl])([CH2]C)([CH2]C)[O][Sb]([Cl])([CH2]C)([CH2]C)[CH2]C` was tested, and the T/C [15] was 109 % of control, the T/C [16] was 114 % of control and the T/C [17] was 123 % of control.

With `COc1cc(C(=O)CO)cc(OC)c1OC(C)=O` the T/C (dose: 5.0 mg/kg/injection, schedule: Q01DX001 (ip), vehicle: saline) was 97 % of control, the T/C [15] was 103 % of control and the T/C [16] was 89 % of control. The T/C [17] was 97 % of control and the T/C (dose: 80.0 mg/kg/injection, schedule: Q01DX001 (ip), vehicle: saline) was 92 % of control.

With `O=S1C=C(c2ccc(Cl)cc2)OC1` (stereo not given) the T/C (dose: 12.0 mg/kg/injection, schedule: Q01DX001 (ip), vehicle: saline) was 102 % of control, the T/C (dose: 25.0 mg/kg/injection, schedule: Q01DX001 (ip), vehicle: saline) was 107 % of control and the T/C (dose: 50.0 mg/kg/injection, schedule: Q01DX001 (ip), vehicle: saline) was 107 % of control.

In the case of `CNc1ccccc1C=O`, the T/C [7] is reported as 94 % of control, the T/C [8] is reported as 97 % of control and the T/C [9] is reported as 100 % of control.

`[Cl][Co][Cl].[NH-]CCC[NH-].[NH-]CCC[NH-]` was tested, and the T/C [14] was 109 % of control.

`CC(C)(C)N=O` was tested, and the T/C (dose: 100.0 mg/kg/injection, schedule: Q01DX001 (ip), vehicle: Klucel (hydroxypropylcellulose) (HPC)) was 103 % of control and the T/C (dose: 200.0 mg/kg/injection, schedule: Q01DX001 (ip), vehicle: Klucel (hydroxypropylcellulose) (HPC)) was 114 % of control.

`CN(C)C(=O)Nc1ccc(Cl)c(Cl)c1` was tested, and the T/C [18] was 94 % of control, the T/C [14] was 103 % of control and the T/C (dose: 200.0 mg/kg/injection, schedule: Q01DX009 (ip), vehicle: saline) was 102 % of control. For the same compound, the T/C (dose: 200.0 mg/kg/injection, schedule: Q04DX003 (ip), vehicle: saline) was 102 % of control, the T/C (dose: 400.0 mg/kg/injection, schedule: Q01DX009 (ip), vehicle: saline) was 93 % of control and the T/C (dose: 400.0 mg/kg/injection, schedule: Q04DX003 (ip), vehicle: saline) was 96 % of control.

In the case of `CCCCN(C)N=Nc1ccc(CCCC(=O)OCC)cc1`, the T/C (dose: 12.5 mg/kg/injection, schedule: Q01DX009 (ip), vehicle: Klucel (hydroxypropylcellulose) (HPC)) is reported as 108 % of control, the T/C (dose: 20.0 mg/kg/injection, schedule: Q01DX009 (ip), vehicle: saline) is reported as 107 % of control and the T/C (dose: 25.0 mg/kg/injection, schedule: Q01DX009 (ip), vehicle: Klucel (hydroxypropylcellulose) (HPC)) is reported as 106 % of control. For the same compound, the T/C (dose: 35.0 mg/kg/injection, schedule: Q01DX009 (ip), vehicle: saline) was 121 % of control, the T/C (dose: 50.0 mg/kg/injection, schedule: Q01DX009 (ip), vehicle: Klucel (hydroxypropylcellulose) (HPC)) was 110 % of control and the T/C [13] was 195 % of control. For the same compound, the T/C (dose: 55.0 mg/kg/injection, schedule: Q01DX009 (ip), vehicle: saline) was 101 % of control and 109 % of control, the T/C (dose: 84.0 mg/kg/injection, schedule: Q01DX009 (ip), vehicle: saline) was 107 % of control and 115 % of control and the T/C [1] was 123 % of control. For the same compound, the T/C [18] was 101 % of control, the T/C [14] was 119 % of control and the T/C (dose: 125.0 mg/kg/injection, schedule: Q01DX009 (ip), vehicle: saline) was 114 % of control and 119 % of control.

For `O=C(N/N=C\c1ccc([N+](=O)[O-])cc1)c1ccco1`, the T/C (dose: 100.0 mg/kg/injection, schedule: Q01DX001 (ip), vehicle: other) was 93 % of control, the T/C (dose: 200.0 mg/kg/injection, schedule: Q01DX001 (ip), vehicle: other) was 93 % of control and the T/C (dose: 400.0 mg/kg/injection, schedule: Q01DX001 (ip), vehicle: other) was 93 % of control.

With `OC1CSC1.[Cl][Hg][Cl]` the T/C (dose: 5.0 mg/kg/injection, schedule: Q01DX001 (ip), vehicle: carboxymethylcellulose (CMC)) was 94 % of control, the T/C (dose: 10.0 mg/kg/injection, schedule: Q01DX001 (ip), vehicle: carboxymethylcellulose (CMC)) was 100 % of control and the T/C (dose: 20.0 mg/kg/injection, schedule: Q01DX001 (ip), vehicle: carboxymethylcellulose (CMC)) was 91 % of control.

For `O=Cc1ccc(N2CCCCC2)cc1`, the T/C [1] was 100 % of control, the T/C [2] was 101 % of control and the T/C [3] was 107 % of control. For the same compound, the T/C [4] was 95 % of control and the T/C [6] was 89 % of control.
